In patent US20200268768A1, “CENICRIVIROC COMBINATION THERAPY FOR THE TREATMENT OF FIBROSIS” (Tobira Therapeutics, Inc., priority 2015, published 2020):
Where “and” joins values, the source holds several entries; their conditions need not be identical. Equal entries are not always repeated.

Key:
CCR2 = CCR2 (Homo sapiens, UniProt P41597); experiment: CCR2 antagonism in in vitro, ex vivo and clinical studies; details: Studies 652-2-201 and 652-2-202
Description: Clinical evidence of CCR2 and CCR5 antagonism was established by measuring changes from baseline in plasma MCP-1 (a ligand of CCR2) concentrations and changes in plasma HIV-RNA (CCR5 co-receptor required for HIV entry), respectively, in these 2 Phase 2 Studies.

[1] = system: adults with CCR5 tropic HIV-1; experiment: Study 202 post-hoc APRI and FIB-4 fibrosis index scores; assay type: in vivo, human
Experimental: APRI and FIB-4 scores were calculated. Change in score category from baseline (BL) to Weeks 24 and 48 was assessed in patients with non-missing data. Correlations between changes from BL in APRI and FIB-4 scores, and MCP-1 (CCR2 ligand) and sCD14 (inflammatory biomarker) levels were evaluated.

[2] = CVC plasma exposures in clinical studies; assay type: in vivo, human; details: same dosing conditions; Studies 652-1-111, 652-1-110, 652-2-202
[3] = system: STAM mouse model of Non-alcoholic Steatohepatitis; experiment: STAM mouse model of NASH, anti-NASH/fibrosis effects at week 9; assay type: in vivo, mice; parameters: key to Hepatocyte ballooning score 0, number of mice / Hepatocyte ballooning score 1, number of mice: 0: None; 1: Few balloon cells; 2: Many cells/prominent ballooning; TNF-a mRNA expression level / MCP-1 mRNA expression level / Collagen Type 1 mRNA expression level / TIMP-1 mRNA expression level: scale not given here; details: for Collagen Type 1 mRNA expression level / MCP-1 mRNA expression level / TIMP-1 mRNA expression level / TNF-a mRNA expression level: liver, quantitative RT-PCR; for Collagen Type 1 mRNA expression level / MCP-1 mRNA expression level / TIMP-1 mRNA expression level / TNF-a mRNA expression level / Body weight / F4/80-positive area (inflammation area) / F4/80 and CD206-positive cells / F4/80 and CDE 16/32-positive cells / Liver hydroxyproline / Liver triglyceride / Liver weight / Liver-to-body weight ratio / M1/M2 ratio / NAFLD Activity Score (NAS) / Oil red-positive area (fat deposition area) / Plasma ALT / Plasma MCP-1 / TUNEL-positive cells / Whole blood glucose / Sirius red-positive area (fibrosis area) / Modified Sirius red-positive rea: mean ± SD; for Sirius red-positive area (fibrosis area): perivascular space included; for Modified Sirius red-positive rea: perivascular space subtracted
Experimental: NASH was induced in male mice by a single injection of 200 μg streptozotocin 2 days after birth (causing impaired glucose control), followed by a high fat diet from 4 weeks of age. […] Animals were sacrificed at 9 weeks of age, and biochemical, gene expression, and histologic evaluations of the liver were conducted. This in vivo efficacy study was performed to examine the effects of Cenicriviroc in the STAM™ mouse model of Non-alcoholic Steatohepatitis. […] [table]

[4] = Week 24, CVC pooled 100 and 200 mg, or EFV
[5] = Week 48, CVC pooled 100 and 200 mg, or EFV
[6] = CVC-high 100 mg/kg/day oral, listed as Cenicriviroc
[7] = CVC-low 20 mg/kg/day oral, listed as Cenicriviroc

Sequence of CCR2 (P41597 whole entry): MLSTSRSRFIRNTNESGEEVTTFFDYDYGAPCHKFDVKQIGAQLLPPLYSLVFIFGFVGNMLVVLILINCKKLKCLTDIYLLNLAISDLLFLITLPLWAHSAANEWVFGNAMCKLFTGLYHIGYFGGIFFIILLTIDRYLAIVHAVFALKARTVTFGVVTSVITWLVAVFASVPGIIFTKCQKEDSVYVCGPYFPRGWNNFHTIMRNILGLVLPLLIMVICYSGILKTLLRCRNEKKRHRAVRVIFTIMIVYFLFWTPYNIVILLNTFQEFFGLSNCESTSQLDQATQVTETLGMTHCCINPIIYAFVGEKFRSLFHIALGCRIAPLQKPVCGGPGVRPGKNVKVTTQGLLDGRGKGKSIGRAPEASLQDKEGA

## CCCCOCCOc1ccc(-c2ccc3c(c2)C=C(C(=O)Nc2ccc([S@@+]([O-])Cc4cncn4CCC)cc2)CCCN3CC(C)C)cc1 [CVC, (S)-8-[4-(2-Butoxyethoxy)phenyl]-1-isobutyl-N-(4-{[(1-propyl-1H-imidazol-5-yl)methyl]sulfinyl}phenyl)-1,2,3,4-tetrahydro-1-benzazocine-5-carboxamide]
CCR2
  Antagonism of CCR2: potent and concentration-dependent antagonism
[1]; [4]
  Subjects in APRI category 0.5-1.5: 7%
  Subjects in APRI category <0.5: 93%
  Subjects in FIB-4 category 1.45-3.25: 7%
  Subjects in FIB-4 category <1.45: 93%
  Subjects with APRI decreased 1 category from baseline: 14%
  Subjects with FIB-4 decreased 1 category from baseline: 13%
[1]; [5]
  Subjects in APRI category 0.5-1.5: 8%
  Subjects in APRI category <0.5: 91%
  Subjects in APRI category >1.5: 1%
  Subjects in FIB-4 category 1.45-3.25: 5%
  Subjects in FIB-4 category <1.45: 94%
  Subjects in FIB-4 category >3.25: 1%
  Subjects with APRI decreased 1 category from baseline: 10%
  Subjects with FIB-4 decreased 1 category from baseline: 14%
[1]; all CVC-treated subjects, pooled CVC 100 mg and 200 mg
  Subjects with improvements in APRI and FIB-4 scores over time: ≥ 10%
[2]
  CVC plasma exposures: higher in non-HIV infected healthy volunteer subjects as compared to HIV-infected subjects
[3]; CVC 20 and 100 mg/kg/day, real-time RT-PCR
  Decrease of collagen type 1 mRNA in whole liver lysates: 27-37%
[3]; CVC-high 100 mg/kg/day oral
  Collagen Type 1 mRNA expression level: 0.73±0.04
  MCP-1 mRNA expression level: 1.00±0.53
  TIMP-1 mRNA expression level: 0.80±0.20
  TNF-a mRNA expression level: 1.09±0.23
  Body weight: 18.7 ± 0.9 g
  F4/80-positive area (inflammation area): 4.96±0.60%
  F4/80 and CD206-positive cells: 33.1±3.0%
  F4/80 and CDE 16/32-positive cells: 41.5±8.2%
  Liver hydroxyproline: 0.62±0.09 ug/mg total protein
  Liver triglyceride: 51.7±14.1 mg/g liver
  Liver weight: 1307 ± 119 mg
  Liver-to-body weight ratio: 7.0±0.8%
  M1/M2 ratio: 125.1±21.9%
  NAFLD Activity Score (NAS): 3.7±0.8
  Oil red-positive area (fat deposition area): 7.23±3.59%
  Plasma ALT: 51±13 U/L and 52±13 U/L
  Plasma MCP-1: 91 ± 14 pg/mL
  TUNEL-positive cells: 39.0±5.3%
  Whole blood glucose: 585 ± 91 mg/dL
[3]; [6]
  Collagen Type 1 mRNA expression level: 0.73 ± 0.04
  MCP-1 mRNA expression level: 1.00 ± 0.53
  TIMP-1 mRNA expression level: 0.80 ± 0.20
  TNF-a mRNA expression level: 1.09 ± 0.23
  Body weight: 18.7 ± 0.9 g
  F4/80-positive area (inflammation area): 4.96 ± 0.60%
  F4/80 and CD206-positive cells: 33.1 ± 3.0%
  F4/80 and CDE 16/32-positive cells: 41.5 ± 8.2%
  Liver hydroxyproline: 0.62 ± 0.09 ug/mg total protein
  Liver triglyceride: 51.7 ± 14.1 mg/g liver
  Liver weight: 1307 ± 119 mg
  Liver-to-body weight ratio: 7.0 ± 0.8%
  M1/M2 ratio: 125.1 ± 21.9%
  NAFLD Activity Score (NAS): 3.7 ± 0.8
  Oil red-positive area (fat deposition area): 7.23 ± 3.59%
  Plasma ALT: 52 ± 13 U/L
  Plasma MCP-1: 91 ± 14 pg/mL
  TUNEL-positive cells: 39.0 ± 5.3%
  Whole blood glucose: 585 ± 91 mg/dL
  Sirius red-positive area (fibrosis area): 0.64 ± 0.19%
  Modified Sirius red-positive rea: 0.20 ± 0.06%
[3]; CVC-high 100 mg/kg/day, Sirius red, individual mice 301-306, listed as Cenicriviroc
  Modified positive area, per mouse: 0.18% and 0.20% and 0.12% and 0.26% and 0.17% and 0.27%
[3]; CVC-high 100 mg/kg/day, Sirius red, individual mice 301-306, photos 1-5, listed as Cenicriviroc
  Modified positive area, per photo: 0.26% and 0.06% and 0.10% and 0.41% and 0.09% (2×) and 0.23% (2×) and 0.17% (2×) and 0.28% (2×) and 0.22% (2×) and 0.08% (3×) and 0.05% and 0.32% and 0.07% (3×) and 0.16% and 0.20% (2×) and 0.68% and 0.27% and 0.12% and 0.11% and 0.67%
[3]; CVC-high 100 mg/kg/day, n=6
  Hepatocyte ballooning score 0, number of mice: 1
  Hepatocyte ballooning score 1, number of mice: 2
  Hepatocyte ballooning score 2, number of mice: 3
  Lobular inflammation score 1, number of mice: 3 (>4 foci/200x)
  Lobular inflammation score 2, number of mice: 3 (>4 foci/200x)
  Steatosis score 0, number of mice: 1 (5-33%)
  Steatosis score 1, number of mice: 5
[3]; CVC-low 20 mg/kg/day oral
  Collagen Type 1 mRNA expression level: 0.63±0.10
  MCP-1 mRNA expression level: 1.05±0.50
  TIMP-1 mRNA expression level: 0.75±0.32
  TNF-a mRNA expression level: 1.16±0.39
  Body weight: 19.5 ± 2.0 g
  F4/80-positive area (inflammation area): 4.77±1.02%
  F4/80 and CD206-positive cells: 34.7±6.3%
  F4/80 and CDE 16/32-positive cells: 38.7±7.6%
  Liver hydroxyproline: 0.63±0.05 ug/mg total protein
  Liver triglyceride: 48.5±16.1 mg/g liver
  Liver weight: 1334 ± 99 mg
  Liver-to-body weight ratio: 6.9±1.0%
  M1/M2 ratio: 112.3±17.0%
  NAFLD Activity Score (NAS): 4.0±0.6
  Oil red-positive area (fat deposition area): 6.51±3.88%
  Plasma ALT: 58±12 U/L
  Plasma MCP-1: 68 ± 16 pg/mL
  TUNEL-positive cells: 43.3±2.9%
  Whole blood glucose: 585 ± 91 mg/dL
[3]; [7]
  Collagen Type 1 mRNA expression level: 0.63 ± 0.10
  MCP-1 mRNA expression level: 1.05 ± 0.50
  TIMP-1 mRNA expression level: 0.75 ± 0.32
  TNF-a mRNA expression level: 1.16 ± 0.39
  Body weight: 19.5 ± 2.0 g
  F4/80-positive area (inflammation area): 4.77 ± 1.02%
  F4/80 and CD206-positive cells: 34.7 ± 6.3%
  F4/80 and CDE 16/32-positive cells: 38.7 ± 7.6%
  Liver hydroxyproline: 0.63 ± 0.05 ug/mg total protein
  Liver triglyceride: 48.5 ± 16.1 mg/g liver
  Liver weight: 1334 ± 99 mg
  Liver-to-body weight ratio: 6.9 ± 1.0%
  M1/M2 ratio: 112.3 ± 17.0%
  NAFLD Activity Score (NAS): 4.0 ± 0.6
  Oil red-positive area (fat deposition area): 6.51 ± 3.88%
  Plasma ALT: 58 ± 12 U/L
  Plasma MCP-1: 68 ± 16 pg/mL
  TUNEL-positive cells: 43.3 ± 2.9%
  Whole blood glucose: 585 ± 91 mg/dL
  Sirius red-positive area (fibrosis area): 0.66 ± 0.16%
  Modified Sirius red-positive rea: 0.29 ± 0.14%
[3]; CVC-low 20 mg/kg/day, n=6
  Hepatocyte ballooning score 1, number of mice: 3
  Hepatocyte ballooning score 2, number of mice: 3
  Lobular inflammation score 1, number of mice: 3 (>4 foci/200x)
  Lobular inflammation score 2, number of mice: 3 (>4 foci/200x)
  Steatosis score 1, number of mice: 6
[3]; high dose 100 mg/kg/day
  Increase in plasma monocyte chemotactic protein-1 levels: 1.5 fold
[3]; low dose 20 mg/kg/day
  Increase in plasma monocyte chemotactic protein-1 levels: 1.1 fold
